Entries after “also recorded” stand apart in the source; their conditions may differ.

Experiment [1] has as its system SK-Hep-1 cell lines (a hepatocellular carcinoma (HCC) cell). Put plainly: MTT assay, growth inhibition of SK-Hep-1 cells. It counts as cell-based. To be noted: for IC50: SK-Hep-1 cells, 48 hours. Here is the method: MTT assay was used to measure growth inhibition. […] MTT (3-(4,5-dimethylthiazol-2-yl)-2,5-diphenyl tetrazolium bromide) assay was performed as follow.
(§1) The effect of individual test compounds on cell viability was assessed by using the MTT in 6 replicates. Sk-Hep-1 cells were seeded and incubated in 96-well, flat-bottomed plates for 24 hours, and were exposed to various concentrations of test compounds dissolved in DMSO (final concentration, 0.1%) for 48 hours. Controls received DMSO vehicle at a concentration equal to that in drug-treated cells. The medium was removed, replaced by 200 μL of 0.5 mg/mL MTT in 10% fetal bovine serum containing DMEM (Dulbecco's Modified Eagle Medium), and cells were incubated in the carbon dioxide incubator at 37° C. for 2 hours. Supernatants were removed from the wells and the reduced MTT dye was solubilized in 100 μL/well DMSO. Absorbance at 570 nm was determined on a plate reader.
The SK-Hep1 cells were then analyzed with western blot assay and MTT assay.

For experiment [2], the system named is CIP2A. Put plainly: western blot of CIP2A expression in SK-Hep1 cells. Particulars: SK-Hep-1 cells, 5 μM, 30 hours (FIG. 4A). The format is cell-based. On the procedure:
Accordingly, the pyrimidine and quinazoline derivatives above were screened by using western blot analysis for expression of CIP2A in SK-Hep1 cells. Before the western blot analysis, the SK-Hep-1 cells were maintained in DMEM supplemented with 10% FBS, 100 units/mL penicillin G, 100 μg/mL streptomycin sulfate and 25 μg/mL amphotericin B in a 37° C. humidified incubator in an atmosphere of 5% CO2 in air. In this western blot analysis, SK-Hep1 cells were respectively treated with compounds 1-24 at a concentration of 20 μM for 24 hours. In FIG. 2, the mono-substituted pyrimidine derivatives (compounds 1-5) have no appreciable change in CIP2A expression.
Cell viability, measured by MTT assay, and CIP2A expressions, analyzed by western blot, in response to compound 19 or erlotinib treatment in SK-Hep1 cell line were analyzed. SK-Hep-1 cells were treated with erlotinib and compound 19 at 2.5 and 5 μM for 24 h, respectively. The SK-Hep1 cells were then analyzed with western blot assay and MTT assay.
(§2) Next, compounds […], 19, and 22 were used to explore whether downregulation of CIP2A lead to suppression of p-Akt. FIG. 4A is the western blot analysis of the effect of the compounds 4, 19, and 22 on phosphorylation of Akt, PARP and Actin. In this western blot analysis, SK-Hep-1 cells were respectively treated with compounds 4, 19, and 22 at a concentration of 5 μM for 30 hours. […] That is, compound 19 and 22 can substantially increase apoptotic cell death to inhibit cancer growth.
A general note: A western blot detects proteins with antibodies after separation by electrophoresis.

In a further experiment the test system is p-Akt. Put plainly: western blot of p-Akt in SK-Hep-1 cells. It counts as cell-based. Particulars: for p-Akt level: SK-Hep-1 cells, 5 μM, 30 hours (FIG. 4A). On the procedure:
as §2
In other words, in the present of okadaic acid, the activation of PP2A by compound 19-incuced CIP2A inactivation is blocked.

The next experiment relates to PARP. Put plainly: western blot of PARP cleavage in SK-Hep-1 cells. To be noted: 5 μM, 30 hours (FIG. 4A). It counts as cell-based. Here is the method:
as §2

The target in experiment [3] is T1, EGFR (Homo sapiens, UniProt P00533, DEL746-750).
T1 construct: endogenous in cells; host or cells: PC9 cells
T1 sequence (P00533 with tags, fused parts or gaps DEL746-750): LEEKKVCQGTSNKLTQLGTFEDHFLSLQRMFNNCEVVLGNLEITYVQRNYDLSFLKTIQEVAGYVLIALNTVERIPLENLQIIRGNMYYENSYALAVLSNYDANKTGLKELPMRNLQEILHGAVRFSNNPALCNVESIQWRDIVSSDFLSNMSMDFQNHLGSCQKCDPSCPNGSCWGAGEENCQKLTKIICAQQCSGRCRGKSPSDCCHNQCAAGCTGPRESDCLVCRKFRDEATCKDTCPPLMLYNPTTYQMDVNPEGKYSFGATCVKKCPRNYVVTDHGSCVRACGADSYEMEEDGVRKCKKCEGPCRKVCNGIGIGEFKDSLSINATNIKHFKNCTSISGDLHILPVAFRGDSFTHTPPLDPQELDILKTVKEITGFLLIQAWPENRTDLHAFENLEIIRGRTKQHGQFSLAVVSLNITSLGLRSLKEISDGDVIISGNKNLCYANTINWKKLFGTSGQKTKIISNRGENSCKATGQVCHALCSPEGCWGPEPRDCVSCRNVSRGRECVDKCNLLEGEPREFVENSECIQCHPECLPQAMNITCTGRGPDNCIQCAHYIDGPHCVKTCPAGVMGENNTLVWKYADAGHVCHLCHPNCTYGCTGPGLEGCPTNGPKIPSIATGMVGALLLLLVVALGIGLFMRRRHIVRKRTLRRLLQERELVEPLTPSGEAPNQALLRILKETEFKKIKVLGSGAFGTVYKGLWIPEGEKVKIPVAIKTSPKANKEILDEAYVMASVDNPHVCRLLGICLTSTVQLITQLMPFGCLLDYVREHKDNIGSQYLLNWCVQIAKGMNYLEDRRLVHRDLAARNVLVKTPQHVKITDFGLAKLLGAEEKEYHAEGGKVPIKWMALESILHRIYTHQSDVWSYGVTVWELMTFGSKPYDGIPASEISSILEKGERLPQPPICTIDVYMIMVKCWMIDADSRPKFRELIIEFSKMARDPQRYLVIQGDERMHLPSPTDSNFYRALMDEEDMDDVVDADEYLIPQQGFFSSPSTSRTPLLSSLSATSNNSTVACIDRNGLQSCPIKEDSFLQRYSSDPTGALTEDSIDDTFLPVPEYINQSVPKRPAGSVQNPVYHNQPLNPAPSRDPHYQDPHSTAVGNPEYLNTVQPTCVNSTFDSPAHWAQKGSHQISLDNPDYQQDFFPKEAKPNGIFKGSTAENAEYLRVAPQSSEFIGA
Put plainly: western blot of EGFR phosphorylation in PC9 cells. It counts as cell-based. Here is the method: 40 μg/per lane of cell lysates were analyzed by western blot. The antibodies of actin, EGFR, and p-EGFR were from Cell Signaling (Danvers, Mass.). In FIGS. 1A-1B, actin lines are used to show an internal standard for the loading control in this western blot.

The subject of a further experiment is PLC5 xenograft tumor. Put plainly: PLC5 xenograft tumor growth in nude mice. Particulars: erlotinib 50 mg/kg/day; for effect on PLC5 tumor growth, in words: p.o. daily for 3 weeks, compounds 20 mg/kg/day (FIG. 6A-6B).
The subject of the next experiment is Huh-7 xenograft tumor. Put plainly: Huh-7 xenograft tumor growth in nude mice. Particulars: erlotinib 50 mg/kg/day.
Experiment [4] addresses EGFR (Homo sapiens, UniProt P00533). Put plainly: western blot of EGFR phosphorylation in H358 cells. To be noted: 1 and 5 μM, 24 hours (FIG. 1C).
The next experiment deals with SK-Hep-1 cells. Put plainly: apoptotic cell death by flow cytometry (sub-G1) and cell death detection ELISA. The format is cell-based. Particulars: 2.5 and 5 μM, 24 h (FIG. 4B-4C). Here is the method:
FIG. 4B is flow cytometry analysis of cell death induced by compounds 4, 19, and 22 at 5 μM, after 24 h of treatment in SK-Hep-1 cells. The apoptotic cells were assessed by flow cytometry (sub-G1). After Sk-Hep-1 cells were treated with compounds 4, 19, and 22, Sk-Hep-1 cells were trypsinized, collected by centrifugation and resuspended in PBS. After centrifugation, the cells were washed in PBS and resuspended in […] (PI) staining solution. Specimens were incubated in the dark for 30 min at 37° C. and then analyzed with an EPICS Profile II flow cytometer (Coulter Corp., Hialeah, Fla.). All experiments were performed in triplicate
FIG. 4C is ELISA analysis of cell death to analyze effects of compounds 4, 19, and 22 on DNA fragmentation in SK-Hep-1 cells. The effect of compounds 4, 19 and 22 on cell viability was assessed by a cell death detection ELISA kit (Roche Applied Science, Mannheim, Germany). SK-Hep-1 cells were treated with compounds 4 and 19 at 22 at 2.5 and 5 μM for 24 h. The cells were collected and assayed according to the standard protocol provided by the manufacturer.
Background: In flow cytometry, cells or beads pass a laser one at a time.

The next experiment deals with Hep3B cell lines. Put plainly: MTT assay, growth inhibition of Hep3B cells. It counts as cell-based. To be noted: Homo sapiens. On the procedure:
as §1
(§3) Next, compounds 19, and 34-36 were screened against a panel of Hep3B cell lines for growth-inhibitory activities. […] Compounds 87-90, 95 and 96 were screened against a panel of PLC5 cell lines for growth-inhibitory activities.

The test system of a further experiment is PLC5 cell lines. Put plainly: MTT assay, growth inhibition of PLC5 cells. The format is cell-based. Here is the method: as §1, §3
For orientation: Tetrazolium assays rely on reduction of a dye to a coloured formazan, in cell work by metabolically active cells.

The subject of experiment [5] is CIP2A. Put plainly: western blot of CIP2A expression in PLC/PRF/5 cells. The format is cell-based. Particulars: 10 μM, 48 hours (FIG. 8). Here is the method: PLC/PRF/5 cells were exposed to compounds 88, 95 and 96 at various doses (5 and 10 μM) for 48 hours. Total lysates were subjected to CIP2A protein analysis by western blot. Actin was used as a loading control.

Where [6] appears, read: p.o. daily, after 21 days of treatment, compounds 8 and 19 20 mg/kg/day.

EGFR (Homo sapiens, UniProt P00533), sequence (P00533 25-1210): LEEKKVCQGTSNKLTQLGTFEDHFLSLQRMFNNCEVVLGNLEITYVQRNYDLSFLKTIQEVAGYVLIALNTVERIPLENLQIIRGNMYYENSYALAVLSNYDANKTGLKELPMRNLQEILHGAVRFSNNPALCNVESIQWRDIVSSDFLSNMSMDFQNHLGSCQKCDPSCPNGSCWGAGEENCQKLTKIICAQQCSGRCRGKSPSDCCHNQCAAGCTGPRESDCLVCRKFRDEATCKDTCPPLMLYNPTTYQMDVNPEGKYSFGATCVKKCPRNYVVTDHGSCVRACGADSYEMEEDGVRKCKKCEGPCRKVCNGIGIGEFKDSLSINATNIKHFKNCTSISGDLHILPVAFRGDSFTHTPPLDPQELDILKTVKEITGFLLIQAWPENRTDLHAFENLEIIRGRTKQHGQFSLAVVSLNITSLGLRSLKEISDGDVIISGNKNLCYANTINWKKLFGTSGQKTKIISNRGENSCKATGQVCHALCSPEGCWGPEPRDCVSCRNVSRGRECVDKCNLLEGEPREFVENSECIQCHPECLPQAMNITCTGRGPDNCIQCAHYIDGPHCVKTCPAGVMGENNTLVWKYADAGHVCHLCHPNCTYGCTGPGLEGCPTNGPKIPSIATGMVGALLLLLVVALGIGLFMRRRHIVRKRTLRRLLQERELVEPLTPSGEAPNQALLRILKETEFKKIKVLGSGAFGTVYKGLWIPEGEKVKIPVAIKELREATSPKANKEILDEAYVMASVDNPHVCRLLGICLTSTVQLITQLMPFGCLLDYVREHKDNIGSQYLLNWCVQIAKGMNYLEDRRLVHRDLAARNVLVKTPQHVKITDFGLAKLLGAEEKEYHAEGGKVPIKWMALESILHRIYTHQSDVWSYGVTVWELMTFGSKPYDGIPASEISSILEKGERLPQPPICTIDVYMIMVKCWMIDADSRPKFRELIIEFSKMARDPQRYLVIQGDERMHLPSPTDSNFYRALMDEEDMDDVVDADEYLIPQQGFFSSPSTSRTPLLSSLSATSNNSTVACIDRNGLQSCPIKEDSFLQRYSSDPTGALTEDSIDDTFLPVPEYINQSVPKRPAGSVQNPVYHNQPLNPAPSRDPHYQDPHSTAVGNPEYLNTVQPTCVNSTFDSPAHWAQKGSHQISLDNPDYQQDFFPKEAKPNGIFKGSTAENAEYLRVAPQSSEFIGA
Method for Huh-7 xenograft tumor: (§4) The mice were housed in groups and maintained under standard laboratory conditions on a 12-hour light-dark cycle. They were given access to sterilized food and water ad libitum. All experimental procedures using these mice were performed in accordance with protocols approved by the Institutional Laboratory Animal Care and Use Committee of National Taiwan University. Each mouse was inoculated s.c. in the dorsal flank with 1×10^6 HCC cells suspended in 0.1 ml of serum-free medium containing 50% Matrigel (BD Biosciences, Bedford, Mass.). […] Controls received vehicle.
(§5) Tumor growth data points are reported as mean tumor volume±SE.
Method for PLC5 xenograft tumor: as §4, §5

Usually IC50 stands for the concentration needed to halve the response being measured. `Clc1nccc(Nc2ccc(Oc3ccccc3)cc2)n1` [Compound 4, 2-Chloro-N-(4-phenoxyphenyl)pyrimidin-4-amine] registered an IC50 in experiment [1] (Homo sapiens, SK-HEP1, 48 h) greater than 40 µM. Also, the “growth-inhibitory activity (MTT), in words” value in experiment [1] (SK-Hep-1 (HCC) cells) is listed as “no activity in either assay”. Besides, the “inhibiting CIP2A expression” value with CIP2A [2] is recorded as “no activity”. The p-Akt level entry in the experiment with p-Akt is on record as “no activity”. Further, in the experiment on PARP, the PARP cleavage entry is given as “no activity”.
`C#Cc1cccc(Nc2nc(Cl)nc3cc(OC)c(OC)cc23)c1` [Compound 8, 2-Chloro-N-(3-ethynylphenyl)-6,7-dimethoxyquinazoline-4-amine]: the “EGFR kinase inhibition (p-EGFR western blot)” value at EGFR [3] (PC9 cells, 0.5, 1, 2, 4, and 8 μM, 24 hours (FIG. 1A-1B)) was “devoid of EGFR kinase inhibition”. Besides, the IC50 in experiment [1] (Homo sapiens, SK-HEP1, 48 h) was less than 10 µM. The “effect on PLC5 tumor growth, in words” value in the experiment with PLC5 xenograft tumor is reported as “significantly reduced the growth of tumor”. Moreover, in the experiment with PLC5 xenograft tumor (setting [6]), the “tumor inhibition, PLC5 cell” value is 45.7%. In the experiment on Huh-7 xenograft tumor (p.o. daily for 3 weeks, compounds 20 mg/kg/day (FIG. 7A-7B)), the “effect on Huh-7 tumor growth, in words” value is given as “better inhibitory effect on Huh-7 tumors than erlotinib”. In addition, the “tumor inhibition, Huh7 cell” value in the experiment on Huh-7 xenograft tumor (setting [6]) is listed as 40.3%. Moreover, the “EGFR phosphorylation inhibition (western blot)” value on EGFR [4] is listed as “devoid of EGFR kinase inhibition”.
With `C#Cc1cccc(Nc2nc(NCc3ccccc3)nc3cc(OC)c(OC)cc23)c1` [Compound 22, N^2-Benzyl-N^4-(3-ethynylphenyl)-6,7-dimethoxy quinazoline-2,4-diamine], the “EGFR phosphorylation inhibition (western blot)” value on EGFR [3] (PC9 cells, 2 μM, 24 h (FIG. 3A)) is listed as “no inhibitory effect on EGFR kinase”. In experiment [1], this compound yielded a half-inhibitory concentration (IC50) of 2.8 µM. Also, in the experiment on CIP2A [2], the “inhibiting CIP2A expression” value is “inhibiting CIP2A expression; also recorded: most potent inhibition of CIP2A expression”. Also, in the experiment with p-Akt, the p-Akt level result was “reducing p-Akt level; also recorded: reduced Akt phosphorylation”. Also, the PARP cleavage result with PARP was “inducing PARP cleavage”. The “cell apoptosis (sub-G1 flow cytometry, DNA fragmentation ELISA)” value with SK-Hep-1 cells is given as “induced cell apoptosis”. In the experiment on PLC5 xenograft tumor, the “effect on PLC5 tumor growth, in words” value is reported as “significantly reducing the growth of tumor”.
As to `C#Cc1cccc(Nc2nc(Nc3cccc(NCc4ccccc4)c3)nc3cc(OC)c(OC)cc23)c1` [Compound 34, N^2-(3-(benzylamino)phenyl)-N^4-(3-ethynylphenyl)-6,7-dimethoxyquinazoline-2,4-diamine], in the experiment on Hep3B cell lines, the IC50 amounted to 3.35 µM.
The same measure, in the same setting: with `C#Cc1cccc(Nc2nc(Nc3cccc(NC(=O)c4cc(C(F)(F)F)cc(C(F)(F)F)c4)c3)nc3cc(OC)c(OC)cc23)c1` [Compound 35, N-(3-(4-(3-ethynylphenylamino)-6,7-dimethoxyquinazolin-2-ylamino)phenyl)-3,5-bis(trifluoromethyl)benzamide] the figure was 3.27 µM.
Same read-out and setting: then `C#Cc1cccc(Nc2nc(Nc3cccc(NC(=O)c4cccc(C(F)(F)F)c4)c3)nc3cc(OC)c(OC)cc23)c1` [Compound 36, N-(3-(4-(3-ethynylphenylamino)-6,7-dimethoxyquinazolin-2-ylamino)phenyl)-3-(trifluoromethyl)benzamide], with 3.38 µM.
As to `C#Cc1cccc(Nc2nc(Nc3ccc(Cl)c(Oc4ccc(C#N)cc4)c3)nc3cc(OC)c(OC)cc23)c1` [Compound 87, 4-(2-chloro-5-((4-((3-ethynylphenyl)amino)-6,7-dimethoxyquinazolin-2-yl)amino)phenoxy)benzonitrile], the IC50 in the experiment on PLC5 cell lines (PLC5, PLC5 cells) stood at 8.2 µM.
In the experiment on PLC5 cell lines (PLC5, PLC5 cells), `C#Cc1cccc(Nc2nc(Nc3ccc(Cl)c(Oc4ccc(C#N)c(Cl)c4)c3)nc3cc(OC)c(OC)cc23)c1` [Compound 88, 2-chloro-4-(2-chloro-5-((4-((3-ethynylphenyl)amino)-6,7-dimethoxyquinazolin-2-yl)amino)phenoxy)benzonitrile] displayed an IC50 of 12.7 µM. Further, in the experiment with CIP2A [5], the “inhibition of CIP2A expression” value is reported as “high degree of repression of CIP2A”.
With `C#Cc1cccc(Nc2nc(Nc3ccc(Cl)c(Oc4ccc(C#N)c(C)c4)c3)nc3cc(OC)c(OC)cc23)c1` [Compound 89, 4-(2-chloro-5-((4-((3-ethynylphenyl)amino)-6,7-dimethoxyquinazolin-2-yl)amino)phenoxy)-2-methylbenzonitrile], inhibition in the experiment on PLC5 cell lines (PLC5, PLC5 cells) was half-maximal at 20.2 µM (IC50).
As for `C#Cc1cccc(Nc2nc(Nc3ccc(Oc4ccc(Cl)c(Cl)c4)cc3)nc3cc(OC)c(OC)cc23)c1` [Compound 90, N^2-(4-(3,4-dichlorophenoxyl)phenyl)-N^4-(3-ethynylphenyl)-6,7-dimethoxyquinazoline-2,4-diamine], the IC50 in the experiment on PLC5 cell lines (PLC5, PLC5 cells) is 0.77 µM.
Take `C#Cc1cccc(Nc2nc(Nc3ccc(Oc4ccc(Cl)c(Cl)c4)cc3)nc3cc(OC)c(OC)cc23)c1` [Compound 95, N^2-(4-(3,4-dichlorophenoxyl)phenyl)-N^4-(3-ethynylphenyl)-6,7-dimethoxyquinazoline-2,4-diamine]: the IC50 in the experiment on PLC5 cell lines (PLC5 cells) came to 0.95 µM. Besides, in the experiment with CIP2A [5], the “inhibition of CIP2A expression” value is listed as “high degree of repression of CIP2A”.
With `C#Cc1cccc(Nc2nc(Nc3ccc(Oc4ccc(Cl)cc4)cc3)nc3cc(OC)c(OC)cc23)c1` [Compound 96, N^2-(4-(4-chlorophenoxyl)phenyl)-N^4-(3-ethynylphenyl)-6,7-dimethoxyquinazoline-2,4-diamine], the midpoint of inhibition with PLC5 cell lines (PLC5, PLC5 cells), the IC50, lay at 0.61 µM.
For `C=C1[C@@H](O)[C@@H]2O[C@]3(CC[C@H](/C=C/[C@@H](C)[C@@H]4CC(C)=C[C@@]5(O[C@H](C[C@@](C)(O)C(=O)O)CC[C@H]5O)O4)O3)CC[C@H]2O[C@@H]1[C@@H](O)C[C@H](C)[C@H]1O[C@@]2(CCCCO2)CC[C@H]1C` [okadaic acid, reference compound], the “p-Akt level in compound 19 treated cells” value in the experiment with p-Akt (SK-Hep-1 cells treated with compound 19 (FIG. 5B)) is reported as “reversed p-Akt level”.
